# Laboratory results taken from US20220243177A1, “METHODS OF CULTURING QUIESCENT HEMATOPOIETIC STEM CELLS AND TREATMENT METHODS” (priority 2019, published 2022).
# Columns and labels:
# [1] = system: HSCs (LSK CD150+CD48-); assay: Mitochondrial membrane potential (TMRE) by flow cytometry; type: cell-based, mouse
# Procedure: To measure mitochondrial membrane potential (“MMP”), Tetramethylrhodamine ethyl ester perchlorate (“TMRE”, 100 nM), which specifically accumulates within the mitochondrial matrix of live cells, was used in accordance with the manufacturer's instructions. In brief, cells were stained with the probe at 37° C. for 15 minutes post antibody staining, followed by washing and flow cytometry analysis or FACS purification. Probe responsiveness to MMP changes were tested using controls carbonyl cyanide 3-chlorophenylhydrazone (“CCCP”) and oligomycin, which decreased and increased fluorescence of TMRE respectively. MMP-low and MMP-high thresholds were determined as the lowest and highest 25% TMRE intensity HSCs. Reactive oxygen species (“ROS”) were measured using chloromethyl-dichlorodihydrofluorescein diacetate (“CM-H2DCFDA”) fluorescent probe as described in Rimmele et al., “Mitochondrial Metabolism in Hematopoietic Stem Cells Requires Functional FOXO3,”EMBO Rep. 16: 1164-1176 (2015); Yalcin et al., “ROS-Mediated Amplification of AKT/mTOR Signalling Pathway Leads to Myeloproliferative Syndrome in Foxo3(-/-) Mice,” EMBO J. 29: 4118-4131 (2010); and Yalcin et al., “Foxo3 Is Essential for the Regulation of Ataxia Telangiectasia Mutated and Oxidative Stress-mediated Homeostasis of Hematopoietic Stem Cells,” J. Biol. Chem. 283: 25692-25705 (2008), which are hereby incorporated by reference in their entirety. Flow cytometry acquisition was performed on the BD LSRII, while cell sorting was performed on the BD Influx. All flow cytometry analyses and quantification were done using FlowJo 10 (Treestar).
# [2] = system: HSCs of treated mice; assay: In vivo glycolytic inhibition; design: species or system mouse
# Procedure: In vivo Glycolytic Inhibition. To assess the effect of inhibition of glycolysis on MMP in HSCs, mice received intraperitoneal injections of either PBS or 2-DG 750 mg/kg every other day for 6 days after which total BM cells […] cells were isolated and MMP analyzed by flow cytometry in HSCs.
# [3] = system: MMP-low and MMP-high HSCs; assay: LT-HSCs maintenance assay (viability, DAPI exclusion); type: cell-based
# Procedure: LT-HSCs Maintenance Assay: FACS-purified MMP-low and MMP-high HSCs cells were cultured in serum-free Stemspan medium supplemented with SCF (10 ng/mL) and TPO (20 ng/mL), cultured as single or 1,000 yells or 2,000 cells/well, and treated with ConA (10-100 nM), or 2-Deoxy-Glucose (2-DG; 5-60 mM), α-Cyano-4-hydroxycinnamic acid (CHC, 10 mM), or 0.5% DMSO, incubated at 37° C. for the indicated time. Cells were then washed twice in PBS, re-suspended in PBS containing 1 μg/ml DAPI, and analyzed by flow cytometry after DAPI exclusion.
# [4] = system: MMP-low and MMP-high LT-HSCs transplanted into lethally irradiated mice; type: in vivo
# Procedure: Competitive In Vivo Long-Term Reconstitution Assay: MMP-low and MMP-high HSCs (LSKCD150^+CD48^−, LT-HSC; MMP^low/high) were FACS purified from CD45.1 mice and transplanted at the indicated dose of test cells with 2×10^5 CD45.2 bone marrow cells into lethally irradiated CD45.2 recipients (12 Gy as a split dose, 6.5 and 5.5 Gy, 4 hours apart). Donor (CD45.1) and recipient (CD45.2) mice were 8-12 weeks old. HSC frequency was determined by the limiting dilution assay (Hu & Smith, “ELDA: Extreme Limiting Dilution Analysis for Comparing Depleted and Enriched Populations in Stem Cell and Other Assays,” J. Immunol. Methods 347:7 0-78 (2009), which is hereby incorporated by reference in its entirety) based on the number of mice with […] reconstitution (CD45.1) at 16 weeks.
# To assay the effect of glycolytic inhibition of HSCs in a competitive in vivo long-term reconstitution assay: FACS-sorted MMP-low and MMP-high LT-HSCs (CD45.1) were mixed with 2×10^5 CD45.2 total bone marrow cells and injected into lethally irradiated CD45.2 recipients. After 2 days mice were divided into four groups, MMP-low and MMP-high groups treated with PBS or 2-Deoxy-Glucose (2-DG, 1000 mg/kg) every other day for 30 days. Reconstitution of donor CD45.1 cells and lineage distribution were monitored monthly by staining blood cells with antibodies against CD45.1, CD4, CD8 (T), B220 (B), CD11b and Gr-1 (myeloid) cells. For secondary transplantations, 2×10^6 BM cells from primary recipients were transplanted into lethally irradiated secondary recipients. Donor CD45.1 cells contribution and lineage distribution were tracked from the peripheral blood by flow cytometry.
# [5] = system: MMP-low and MMP-high HSCs; assay: Glucose uptake assay (2NBDG); type: cell-based, mouse; settings: STF-31 (10, 20 μM), 18 hours
# Procedure: Glucose Uptake Assay: For measurement of glucose uptake, freshly FACS-purified MMP-low and MMP-high HSCs (at least 2,000 cells pooled in average from 8 mice) were cultured immediately in […] of glucose, glutamine, pyruvate free medium containing 100 or 200 μM 2-(n-(7-nitrobenz-2-oxa-1,3-diazol-4-yl amino)-2-deoxyglucose (2-NBD-Glucose, 2NBDG) for 2 hours. Cells were then washed multiple times in PBS, re-suspended in PBS containing 1 μg/ml DAPI, and analyzed by flow cytometry for 2-NBD glucose fluorescence in the FITC channel. In some experiments cells were cultured in StemSpan medium (StemCell Technology) supplemented with SCF (100 ng/ml) and TPO (20 ng/ml), treated with or without STF-31 ([…]), ConA (25, 50 nM), dimethyl alpha ketoglutarate (MOG, 1 mM), methyl pyruvate (MP, 1 mM) or DMSO, incubated at 37° C. in a humidified atmosphere with 5% CO2 for 6 or 18 hours before removing culture medium from each well, washing extensively and adding […] of glucose, glutamine, pyruvate free medium containing […] of 2 NBDG for 2 hours before washing cells multiple times in PBS and analyzing by flow cytometry. Quantification of 2NBDG uptake was measured by the geometric mean fluorescence intensity (“MFI”) as well as % of 2NBDG^+ cells.
# [6] = system: MMP-low and MMP-high HSCs; assay: Autophagic vacuole formation / lysosomal localization of mitochondria (confocal immunofluorescence); type: cell-based, mouse; design: number of autolysosomes (LC3 co-localization with LAMP1) / co-localization of TOM20 with LAMP1 in MMP-low and MMP-high HSCs: dose or concentration left out as unconfirmed
# Source text: Immunofluorescence Staining, Imaging, and Analysis—Super Resolution Confocal Microscopy: Images were acquired with a Zeiss LSM 880 confocal microscope equipped with Airyscan Super Resolution Imaging module, using a 100×/1.46 Alpha Plan Apochromat objective lens (Zeiss MicroImaging, Jena, Germany) with “optimal” (Nyquist) XY scaling. Z stacks through the entire cell were acquired at an […] (at least 20 optical sections) using a pixel dwell time of >50 microseconds and field dimensions of […] (20 MMP-low and 20 MMP-high HSCs analyzed). This was followed by Airyscan image processing (set at auto but rarely over 6.2) and analyses using ZEN image acquisition and processing software (ZEN blue/black). Maximum intensity projections shown in the figures were also obtained using ZEN Blue software.
# Lysosomal Localization of Mitochondria. FACS-sorted MMP-low and MMP-high HSCs (LSKCD150^+CD48^-MMP-low/-high) were treated with DMSO control or leupeptin […] for 4 hours. HSCs were then fixed and imaged for TOM20 (mitochondria) and LAMP1 (lysosomes).
# Autophagic Vacuole Formation. Accumulation of autophagy substrates, Translocase of outer membrane 20 (TOM20) or Map11c3a (LC3), was determined in the presence of amino acid-containing (DMSO) or -starved amino acid-depleted media, v-ATPase inhibitor concanamycin A (ConA 40nM), inhibitor of autophagosome-autolysosome fusion chloroquine (CQ, […]), or protease inhibitor, leupeptin […] following guidelines outlined for study of autophagy (Klionsky et al., “Guidelines for the Use and Interpretation of Assays for Monitoring Autophagy (3rd Edition),” Autophagy 12(1): 1-222 (2016) and Martinez-Lopez et al., “Autophagy Proteins Regulate ERK Phosphorylation,” Nat. Commun. 4: 2799 (2013), which are hereby incorporated by reference in their entirety). In brief, FACS-sorted
# MMP-low and MMP- high HSCs were cultured in the presence or absence of indicated inhibitors for 4, 5, or 18 hours following which cells were subjected to immunofluorescence assays for TOM20, LC3 and/or LAMP1 or LAMP2 as described above. Analyses were performed to quantify the turnover of indicated protein in lysosomes by evaluating the accumulation of TOM20 or LC3 in the presence versus absence of an inhibitor. TOM20 and LC3 flux were determined by subtracting the colocalized value of inhibitor-untreated TOM20 or LC3 with LAMP1 from corresponding inhibitor-treated values. Images were captured using a Zeiss LSM880 Airyscan confocal microscope using 100 X objectives (Leica), and percentage colocalization was calculated using the JACoP plugin (NIH ImageJ).
# Mitochondrial and Lysosome Morphology: Freshly isolated HSCs were analyzed for mitochondrial morphology. Each individual HSC (150 total) was analyzed by using Arivis Vision 4D software and classified as either fragmented or not fragmented in accordance with number of surfaces. Cells that fulfilled the definition of ‘fragmented’ contained 3 or more individual mitochondrial surfaces (Kask et al., “Fluorescence-intensity Distribution Analysis and Its Application in Biomolecular Detection Technology,” Proc. Natl. Acad. Sci. USA 96(24): 13756-13761 (1999), which is hereby incorporated by reference in its entirety). Lysosomes' fluorescence intensity or area profiling was calculated using ImageJ software enabling the detection of fluorescently labeled […] boundaries (lysosomal marker LAMP1), as reflected by sharp increases or decreases in fluorescence intensity. Channels displaying fluorescence for either mitochondria or lysosomes were thresholded with the IsoData option to delimit the boundaries of mitochondrial networks and lysosome morphology. The resulting outlines were measured using the analyzed particles option to determine the size of distinct particles representing mitochondrial networks or lysosomes. More than 50 cells/condition/experiment were analyzed for lysosomes. […]
# [7] = recipients treated with 2-DG 1,000 mg/kg every other day for 30 days, after 4 months
structure (smiles),measurement,setting,value
CC[C@H]1/C=C/C=C/C[C@@H](C)[C@H](O)[C@@](C)(O)C(=O)[C@@H](C)[C@H](O)[C@@H](C)C(=O)[C@@H](C)[C@H](O)[C@@H](C)/C=C/C(=O)O[C@@H]2[C@H](C)[C@H](CC1)O[C@]1(CC[C@H](C)[C@H](C[C@@H](C)O)O1)[C@H]2C [oligomycin],fluorescence of TMRE (probe responsiveness control),[1],increased
"O=CC[C@@H](O)[C@H](O)[C@H](O)CO [2-DG, 2-Deoxy D-Glucose]",cellular viability after in vivo treatment,[2]; 2-DG 750 mg/kg every other day for 6 days,did not have much of an effect
same,overall MMP levels in long-term HSCs,"[2]; 2-DG 750 mg/kg every other day for 6 days, intraperitoneal",slightly but significantly reduced
same,glucose uptake in HSCs with the highest MMP levels,"[2]; in vivo 2-DG, 6 days",reduced glucose uptake
same,effect on MMP-low HSCs (viability),"[3]; 2-DG 50 mM, 12 hours",did not have much of an effect
same,death of MMP-high HSCs after 24 h,"[3]; 2-DG 50 mM, 24 h, not in MMP-low",even more pronounced
same,MMP-high HSCs died,"[3]; 2-DG 50 mM, within 12 hours",over 60%
same,lineage output in recipients of MMP-high HSCs,[4]; 2-DG-treated recipients,balanced production of blood
same,systemic effect in the blood of transplanted mice,"[4]; long-term (up to 16 weeks), normal diet",no systemic effect was detected
same,enhancement of in vivo competitive repopulation ability of MMP-high HSCs,[4]; [7],over 70 fold
same,in vivo competitive repopulation ability of MMP-low HSCs,[4]; [7],only subtle effects
"CC(C)(C)c1ccc(S(=O)(=O)NCc2ccc(C(=O)Nc3cccnc3)cc2)cc1 [Glut1 inhibitor, STF-31]",glucose uptake in MMP-high HSCs,[5],decreased glucose uptake
CC(=O)N[C@@H](CC(C)C)C(=O)N[C@@H](CC(C)C)C(=O)N[C@H](C=O)CCCNC(=N)N [leupeptin],co-localization of TOM20 with LAMP1 in MMP-low and MMP-high HSCs,[6]; 4 h,enhanced similarly
same,"increase in LC3-positive puncta, MMP-high HSCs",[6]; 4 h,3.6 fold
same,"increase in LC3-positive puncta, MMP-low HSCs",[6]; 4 h,1.6 fold
same,number of autolysosomes (LC3 co-localization with LAMP1),[6]; 4 h,greater number of autolysosomes
same,autolysosomal degradation (colocalization of LAMP1 with LC3),"[6]; ConA 40 nM, leupeptin 100 mM, chloroquine 40 mM, 18 hours, MMP-low and MMP-high HSCs",dramatically prevented autolysosomal degradation
same,size of lysosomes in HSCs,"[6]; leupeptin, more evident in MMP-high HSCs",further increased the size of lysosomes
"N#CC(C#N)=NNc1cccc(Cl)c1 [CCCP, carbonyl cyanide 3-chlorophenylhydrazone]",fluorescence of TMRE (probe responsiveness control),[1],decreased
COc1ccc(CCN(C)CCCC(C#N)(c2ccc(OC)c(OC)c2)C(C)C)cc1OC (stereo not shown) [Verapamil],TMRE levels or proportion of MMP-low HSCs,"[1]; Verapamil 25 μM, 50 μM, MRP inhibition",did not modulate significantly
"N#CC(=Cc1ccc(O)cc1)C(=O)O [CHC, a-cyano-4-hydroxycinnamate]",decrease of survival in MMP-high HSCs,"[3]; 10 mM CHC, 6 hours",80%
same,effect on survival of MMP-low HSCs,"[3]; 10 mM CHC, 6 hours",negligible effect
